From patent US9006205B2, “Antisense oligonucleotides against neutral sphingomyelinase and neutral sphingomyelinase inhibitor GW4869 for degenerative neurological disorders” (Rush University Medical Center, priority 2011, dated 2015)

Columns and labels:
Format in all cases: cell-based
A-SMase [1] = assay: Western blot of A-SMase protein after antisense knockdown in primary human neurons; settings: 48 h with oligonucleotide
Procedure: Because these ASOs have become a very critical part of our study, the efficacy of N-SMase and A-SMase ASOs in inhibiting the protein expression of N-SMase and A-SMase was checked by western blot. […] Next, the effect of antisense knockdown of neuronal N-SMase and/or A-SMase on activated glia-induced neuronal apoptosis by TUNEL was investigated. […] As evidenced by a decrease In MTT metabolism, activated astroglia reduced neuronal viability (FIG. 2E).
Primary human neurons were incubated with antisense (ASO) and scrambled oligonucleotides (ScO) against N-SMase (A) and A-SMase (FIG. 2B). After 48 h, neurons were analyzed for protein expression of N-SMase and A-SMase. In FIG. 2C, primary human astrocytes seeded in inserts were stimulated by the combination of Aβ and IL-1β as described above. […] After 6 h of treatment with activated astrocytes, apoptotic events in neurons were detected by TUNEL. In FIG. 2D, TUNEL-positive cells were counted manually in four different images of each of three coverslips by three individuals blinded to the experiment. In FIG. 2E, after 18 h of stimulation, cell viability was examined by the metabolism of MTT and the release of LDH. […] Cell viability was checked by MTT (FIG. 2F) and LDH (FIG. 2G). Values obtained from the control group served as 100%, and data obtained in other groups were calculated as percent of control accordingly. […]

primary human neurons = assay: TUNEL apoptosis of neurons challenged by (fibrillar Aβ+IL-1β)-activated astrocytes, astrocyte-neuron trans-well; settings: neurons pretreated 40 h with 1 μM oligonucleotide; 6 h with (fibrillar Aβ+IL-1β)-activated astrocytes
Procedure: Primary human astrocytes were grown to confluency on inserts. After 24 h of stimulation by the combination of Aβ (1 μM) and IL-Iβ (10 ng/ml), inserts were washed thrice with HBSS and then placed onto the wells containing primary human neurons. Therefore, in this trans-well model, although neurons and astrocytes face each other, they are separable and the effect of soluble factors released from activated astrocytes on neurons can be studied allowing analysis of neuronal and glial populations separately.
Fragmented DNA was detected in situ by the terminal deoxynucleotidyltransferase-mediated binding of 3′-OH ends of DNA fragments generated in response to fibrillar Aβ1-42, using a commercially available kit (TdT FragEL™) from Calbiochem. […]
Primary human neurons were incubated with antisense (ASO) and scrambled oligonucleotides (ScO) against N-SMase (A) and A-SMase (FIG. 2B). After 48 h, neurons were analyzed for protein expression of N-SMase and A-SMase. […] After 6 h of treatment with activated astrocytes, apoptotic events in neurons were detected by TUNEL. In FIG. 2D, TUNEL-positive cells were counted manually in four different images of each of three coverslips by three individuals blinded to the experiment. […] Values obtained from the control group served as 100%, and data obtained in other groups were calculated as percent of control accordingly. […]

primary human astroglia = assay: NO synthesis (nitrite, Griess reagent) in primary human astroglia; settings: astroglia preincubated 30 min with different concentrations of chemical inhibitor; nitrite after 24 h
Procedure: Synthesis of NO was determined by assay of culture supernatants for nitrite, a stable reaction product of NO with molecular oxygen, using Griess reagent as described.
After 24 h of stimulation, the concentration of nitrite was measured in supernatants (FIG. 4A) by Griess reagent. […] Cells were treated with ASO/ScO for 40 h followed by stimulation with the combination of fibrillar Aβ and IL-Iβ as above. After 6 h, the expression of iNOS mRNA was analyzed by both semi-quantitative RT-PCR (C) and quantitative real-time PCR (FIG. 4D). The expression of TNF-a, IL-6 and IL-Iβ mRNAs were analyzed by semi-quantitative RT-PCR (FIG. 4E). Results are mean±SD of three different experiments. ^ap<0.001 vs control; ^bp<0.001 vs (Aβ+IL-Iβ).

A-SMase [2] = target: T1, A-SMase (Homo sapiens, UniProt P17405); assay: Assay of A-SMase activity in primary human neurons; settings: activated astroglia-insulted human neurons, chemical inhibitors
T1 construct: The supernatant was used as the source of A-SMase; endogenous in cells; host or cells: primary human neurons
T1 sequence (P17405 47-631): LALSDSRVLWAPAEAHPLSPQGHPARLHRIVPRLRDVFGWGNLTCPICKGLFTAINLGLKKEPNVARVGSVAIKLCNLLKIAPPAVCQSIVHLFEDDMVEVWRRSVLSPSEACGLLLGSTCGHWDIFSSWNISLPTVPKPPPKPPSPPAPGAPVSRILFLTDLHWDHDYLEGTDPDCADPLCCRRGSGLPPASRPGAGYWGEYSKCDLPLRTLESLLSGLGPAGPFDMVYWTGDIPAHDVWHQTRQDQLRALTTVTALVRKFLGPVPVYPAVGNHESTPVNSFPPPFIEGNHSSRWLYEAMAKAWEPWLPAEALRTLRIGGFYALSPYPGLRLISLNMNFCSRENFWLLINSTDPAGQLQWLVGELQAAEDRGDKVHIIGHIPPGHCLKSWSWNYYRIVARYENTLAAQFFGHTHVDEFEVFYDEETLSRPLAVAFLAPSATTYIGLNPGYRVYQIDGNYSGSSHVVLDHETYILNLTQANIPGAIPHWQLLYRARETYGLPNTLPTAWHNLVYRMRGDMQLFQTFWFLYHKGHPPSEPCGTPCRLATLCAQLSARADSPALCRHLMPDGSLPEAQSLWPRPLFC
Procedure: Activities of SMase(s) were assayed as described by. Briefly, after treatment, the cells were washed with PBS, harvested in PBS, divided into two halves, and centrifuged. The fraction for N-SMase was resuspended in buffer A (100 mM Tris-HCl, pH 7.4, 0.1% Triton X-100, 1 mM EDTA, and protease inhibitors), and the cell suspension was sonicated and centrifuged at 500×g at 4° C. for 5 min. The supernatant was used as the enzyme source for N-SMase. The reaction mixture contained enzyme preparation in buffer A containing 5 nmol of [^14C] sphingomyelin, 5 nmol of phosphatidylserine, 5 mM dithiothreitol, and 5 mM MgC¾ in a final volume of 100 μl. […] The activity of A-SMase was measured in a 100-μl reaction mixture consisting of the enzyme preparation in buffer B and 5 nmol of [^14C] sphingomyelin. […]
In FIGS. 3A-3E, primary human astrocytes seeded in inserts were stimulated by the combination of Aβ and IL-Iβ as described above. […] In FIG. 3A, after 1 h, activity of N-SMase was measured in total cell extracts of neurons as described above. […] Values obtained from the control group served as 100%, and data obtained in other groups were calculated as percent of control accordingly. […] Primary human neurons were treated with 25 μM DETA-NONOate (a NO donor) and at different time points of treatment, activities of N-SMase (FIG. 3D) and A-SMase (FIG. 3E) were monitored. ^ap<0.001 vs control (0 h).

N-SMase = target: T2, N-SMase (Homo sapiens, UniProt Q9NY59); assay: Assay of N-SMase activity in primary human neurons; settings: activated astroglia-insulted human neurons, chemical inhibitors
T2 construct: endogenous in cells; host or cells: primary human neurons
T2 sequence (Q9NY59 1-655): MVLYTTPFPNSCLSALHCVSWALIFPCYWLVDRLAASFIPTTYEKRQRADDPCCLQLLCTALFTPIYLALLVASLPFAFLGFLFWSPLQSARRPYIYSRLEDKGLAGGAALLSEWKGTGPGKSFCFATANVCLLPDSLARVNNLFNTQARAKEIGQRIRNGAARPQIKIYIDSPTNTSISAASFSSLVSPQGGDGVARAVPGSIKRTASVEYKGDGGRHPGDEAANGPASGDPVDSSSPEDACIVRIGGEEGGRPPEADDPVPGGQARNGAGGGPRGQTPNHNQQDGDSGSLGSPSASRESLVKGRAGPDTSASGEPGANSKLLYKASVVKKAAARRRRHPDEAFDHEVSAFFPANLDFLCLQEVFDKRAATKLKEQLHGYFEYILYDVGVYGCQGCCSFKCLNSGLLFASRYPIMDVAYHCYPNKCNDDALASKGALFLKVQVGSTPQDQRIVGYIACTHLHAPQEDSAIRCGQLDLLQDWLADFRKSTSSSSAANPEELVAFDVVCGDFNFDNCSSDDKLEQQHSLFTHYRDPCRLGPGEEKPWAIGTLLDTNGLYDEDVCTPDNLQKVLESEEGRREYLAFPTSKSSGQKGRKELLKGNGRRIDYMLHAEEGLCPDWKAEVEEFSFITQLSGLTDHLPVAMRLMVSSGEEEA
Procedure: Activities of SMase(s) were assayed as described by. Briefly, after treatment, the cells were washed with PBS, harvested in PBS, divided into two halves, and centrifuged. The fraction for N-SMase was resuspended in buffer A (100 mM Tris-HCl, pH 7.4, 0.1% Triton X-100, 1 mM EDTA, and protease inhibitors), and the cell suspension was sonicated and centrifuged at 500×g at 4° C. for 5 min. The supernatant was used as the enzyme source for N-SMase. The reaction mixture contained enzyme preparation in buffer A containing 5 nmol of [^14C] sphingomyelin, 5 nmol of phosphatidylserine, 5 mM dithiothreitol, and 5 mM MgC¾ in a final volume of 100 μl. Similarly, the fraction for A-SMase was resuspended in buffer B (100 mM sodium acetate, pH 5.0, 0.1% Triton X-100, and protease inhibitors). The cell suspension was sonicated and centrifuged. The supernatant was used as the source of A-SMase. The activity of A-SMase was measured in a 100-μl reaction mixture consisting of the enzyme preparation in buffer B and 5 nmol of [^14C] sphingomyelin. The enzyme reaction was initiated by the addition of 50 μl of substrate and stopped by the addition of 1.5 ml of chloroform:methanol (2:1, v/v) and 0.2 ml of water. After vortexing and phase separation, the aqueous phase was removed for counting.
In FIGS. 3A-3E, primary human astrocytes seeded in inserts were stimulated by the combination of Aβ and IL-Iβ as described above. After 24 h, media were removed and inserts were washed and placed on neurons that were pretreated with PTIO for 30 min. In FIG. 3A, after 1 h, activity of N-SMase was measured in total cell extracts of neurons as described above. After 18 h, neuronal viability was examined by the metabolism of MTT (FIG. 3B) and the release of LDH (FIG. 3C). Values obtained from the control group served as 100%, and data obtained in other groups were calculated as percent of control accordingly. Results are mean+S.D. of three different experiments. ^ap<0.001 vs control; ^bp<0.001 vs activated astrocytes. Primary human neurons were treated with 25 μM DETA-NONOate (a NO donor) and at different time points of treatment, activities of N-SMase (FIG. 3D) and A-SMase (FIG. 3E) were monitored. ^ap<0.001 vs control (0 h).

**Q.** For “5′- GACATCTCGGAGCCGGGGCA -3′ (DNA, all phosphorothioate, methylation of C not given here) [ASO against A-SMase, ID; NO.: 14]”, which “level of A-SMase protein” value (A-SMase [1]) is on record?
**A.** Its value is “suppressed”.

**Q.** And the “protection of neurons from activated astrocyte-induced apoptosis (TUNEL)” value (primary human neurons)?
**A.** The value was “failed to rescue neurons”.

**Q.** How did the “(Aβ+IL-1β)-induced production of NO” value (primary human astroglia) turn out when CN(C)CCCN1c2ccccc2CCc2ccccc21 [imipramine] was run?
**A.** The value was “showed no effect”.

**Q.** What about the “activity of A-SMase” value (A-SMase [2]) of the same molecule?
**A.** The value was “inhibited”.

**Q.** And the “activity of N-SMase” value (N-SMase)?
**A.** Its value is “but not N-SMase”.
